Patent publication US12227535B2, “Triterpene saponins, methods of synthesis and uses thereof” (SLOAN KETTERING INSTITUTE FOR CANCER RESEARCH, priority 2008, dated 2025)

Key:
[1] = Toxicity: loss of weight after each injection; assay type: in vivo, mice (C57BL/6J, female); conditions: monitored 0 h, 24 h, 48 h, 72 h after each injection; GD3-KLH 10 μg; adjuvant 20 μg; 4-week duration
Procedure: As a measure of toxicity, loss of weight was monitored at 0 h, 24 h, 48 h and 72 h after each injection. […] As the negative control, vaccinations employing GD3-KLH only (no adjuvant) led to no appreciable weight loss after each injection.

[2] = tested on: GD3 ganglioside; test: Anti-GD3 antibody ELISA after vaccination of mice with GD3-KLH conjugate plus QS-21 adjuvants (Example 4); assay type: in vivo, mice (C57BL/6J, female); conditions: after 3 weekly vaccinations with GD3-KLH; adjuvant doses 10 and 20 μg; compared with GD3-KLH alone
Procedure: Using similar protocols, the immuno-potentiating properties of the synthetic adjuvants SQS-21-Api and SQS-21-Xyl were evaluated in mice (C57BL/6J, female, six weeks of age). […]
Groups of five mice were immunized with the melanoma antigen GD3 ganglioside conjugated to KLH (GD3-KLH) at a 10 μg antigen dose per vaccination. […] Immunopotentiation was assessed by testing for the presence of antibody against GD3 and KLH by ELISA, and against a tumor cell-line SK-MEL-28, expressing GD3 antigen, by FACS.
The antibody response after vaccination with GD3-KLH conjugate with or without adjuvant was determined with an ELISA assay using either GD3 ganglioside or KLH protein as target. […] After the third vaccination, no IgG antibodies against GD3 were detected; however, after the fourth immunization IgM and IgG antibody titers were induced in most mice. […]

[3] = in vivo; cited from earlier work

Compound	weight loss after each injection [1]	IgM antibody response against GD3 (antibody titers) [2]	maximum dose [3]
CC[C@H](C)[C@H](C[C@H](O)CC(=O)O[C@H]1C(C)O[C@@H](OC(=O)[C@]23CCC(C)(C)CC2C2=CCC4C5(C)CC[C@H](O[C@@H]6OC(C(=O)O)[C@@H](O)[C@H](O[C@@H]7OC[C@@H](O)[C@H](O)C7O)C6O[C@@H]6OC(CO)[C@H](O)[C@H](O)C6O)[C@](C)(C=O)[C@@H]5CC[C@]4(C)[C@]2(C)CC3O)C(O[C@@H]2OC(C)[C@H](O[C@@H]3OC[C@@H](O)C(O[C@@H]4OC[C@@H](O)C(O)C4O)C3O)C(O)C2O)C1O)OC(=O)C[C@@H](O)C[C@H](O[C@@H]1O[C@@H](CO)C(O)C1O)[C@@H](C)CC (some centres unmarked) [SQS-21-Xyl, QS-21-Xyl]	very similar	significantly higher than the group with GD3-KLH alone	
CC[C@H](C)[C@H](C[C@H](O)CC(=O)O[C@H]1C(C)O[C@@H](OC(=O)[C@]23CCC(C)(C)CC2C2=CCC4C5(C)CC[C@H](O[C@@H]6OC(C(=O)O)[C@@H](O)[C@H](O[C@@H]7OC[C@@H](O)[C@H](O)C7O)C6O[C@@H]6OC(CO)[C@H](O)[C@H](O)C6O)[C@](C)(C=O)[C@@H]5CC[C@]4(C)[C@]2(C)CC3O)C(O[C@@H]2OC(C)[C@H](O[C@@H]3OC[C@@H](O)C(O[C@@H]4OCC(O)(CO)[C@@H]4O)C3O)C(O)C2O)C1O)OC(=O)C[C@@H](O)C[C@H](O[C@@H]1O[C@@H](CO)C(O)C1O)[C@@H](C)CC (some centres unmarked) [SQS-21-Api, QS-21-Api]	very similar	significantly higher than the group with GD3-KLH alone	
QS-21			≤ 50 µg
